Results: US12303483B2, “Lipase degradation resistant surfactants for use in large molecule therapeutic formulations” (Janssen Biotech, Inc., priority 2018, dated 2025)

Experiments:
Type in all cases: physicochemical
[1] = system: mAbs A, B and C (50 mg/mL formulations); experiment: SEC percent monomer of mAb formulations with surfactant after shaking or thermal stress (Example 1); conditions: 0.01% (w/v) surfactant; 3-month storage at 25° C. followed by shaking stress; compared with polysorbate (PS20 and PS80) formulations; Student's t-test p<0.01
Experimental: (§1) Size Exclusion Chromatography (SEC). The soluble aggregation quality attribute of the investigated formulations was evaluated using size exclusion ultra performance liquid chromatography (SE-UPLC). To prepare samples for analysis, collected formulations from each condition (time zero (T0) control, shaking stress, and thermal stress followed by shaking stress) were diluted with formulation buffer of each respective mAb from 50 mg/mL to 2 mg/mL. SEC runs were conducted with a 5 μL injection of sample into an Acquity UPLC 200 Å, 1.7 μm column using a 0.2 M sodium phosphate mobile phase. Eluting peaks were integrated to determine monomer content based on percent area of the main peak relative to sum of all peak areas.
To assess the protective effects of different surfactants in mAb formulations, polysorbate and PFA was spiked into formulations for three different mAbs. mAbs A and B are bispecific antibodies, and mAb C is an IgG4 monoclonal antibody. The formulations for mAbs A and B comprised 10 mM histidine, 8.5% (w/v) sucrose, at pH 5.7. The mAb C formulation consisted of 10 mM sodium phosphate, 8.5% (w/v) sucrose, 10 ppm EDTA, at pH 7.1. […] Each formulation condition was evaluated with vials in triplicate. The impact of the surfactant type and concentration was assessed using size exclusion chromatography (SEC).

[2] = system: lipases immobilized on beads; experiment: Surfactant stock solutions exposed to lipases immobilized on beads, surfactant quantitation by UPLC-ELSD (Example 2); conditions: over the course of 18 days
From the text: Materials: Surfactants investigated in this study included PFA and polysorbates. Two PFA, Brij® 35 (L23) (Product #ET47399, CAS #9002-92-0) and Brij® 98 (020) (Product #ET40118, CAS #9004-98-2), were obtained from Croda International PLC (East Yorkshire, UK). Polysorbate 20 (Product #4116-04, CAS #9005-64-5) and polysorbate 80 (Product #4117-03, CAS #9005-65-6) were obtained from JT Baker (Center Valley, Pennsylvania). Lipase immobilized on polystyrene beads at 2.0 U/mg (Product Number 73940) was obtained from Fluka (Denmark). All monoclonal antibodies (mAbs) were produced or acquired by Janssen Supply Chain, LLC (Horsham, Pennsylvania) and purified in a series of chromatography and filtration steps.
Surfactant Quantitation. Surfactant quantitation of samples was performed using UPLC with evaporative light scattering detection. Duplicate 7.5 μL sample injections were injected into an OASIS MAX column (30 μm, 2.1×20 mm). The mobile phase consisted of a gradient of milliQ water and isopropanol with 2% formic acid. The integrated area for each sample's eluting peak was assessed against a surfactant standard curve created from serial dilution of each surfactant type ranging from 0.005% (w/v) to 0.08% (w/v).
Stock solutions of PFA and polysorbate surfactants were exposed to lipases immobilized on beads over a period of 18 days. Surfactant levels in the solutions were quantified periodically over the course of testing to determine the extent of lipase-mediated degradation.

[3] = system: IgG4 mAb C; experiment: SEC percent monomer, formulation spiked with lipase-exposed surfactant (Example 3), mAb C; conditions: 0.01% surfactant exposed to lipase; mAb C (FIG. 3C)
Experimental: as §1
(§2) Further studies evaluated the ability of PFA and polysorbate formulations to retain their protective effects after exposures of the surfactants to lipase. The mAb formulations were spiked with surfactants that had been exposed to lipase-beads and then subjected to shaking stress or thermal stress followed by shaking. The mAb formulations were then evaluated for soluble aggregation and particulate matter using SEC and DLS, respectively.

[4] = system: bispecific mAb A; experiment: SEC percent monomer, formulation spiked with lipase-exposed surfactant (Example 3), mAb A; conditions: mAb A (FIG. 3A)
Experimental: as §1, §2

polyoxyethylene (20) oleyl ether [Brij® 020]
percent monomer content (SEC) [1]: retain higher percent monomer content
surfactant level in stock solutions exposed to lipases [2]: remained relatively constant

polyoxyethylene (23) lauryl ether [Brij® L23]
percent monomer content (SEC) [1]: retain higher percent monomer content
surfactant level in stock solutions exposed to lipases [2]: remained relatively constant

polysorbate 20 [PS20]
surfactant level in stock solutions exposed to lipases [2]: declined significantly
percent monomer content (SEC) versus control formulation without any surfactant [3]: lower percent monomer content

polysorbate 80 [PS80]
surfactant level in stock solutions exposed to lipases [2]: declined significantly
percent monomer content (SEC) versus control formulation without any surfactant ([4]; 0.01% surfactant exposed to lipase): lower percent monomer content
percent monomer content (SEC) versus control formulation without any surfactant ([4]; 0.04% surfactant exposed to lipase): lower percent monomer content
